Assays:
[1] = Experimental: (§1) Eppendorf vials (1.5 mL size) were charged with model compounds in excess. […] The vials were briefly vortexed and equilibrated in an end-over-end rotator at 30.0° C. for 20 hours.
as §1

[2] = Water absorption of compound storage media (Karl Fischer titration); format: physicochemical; conditions: for Water content at t = 7 d: room temperature, pierced septum
Experimental: General procedure for calculation of water absorption. Oven-dried flasks capped with septa were cooled under a N2 atmosphere and charged with a volume of the appropriate solutions (DMSO, 3.0 mL; NMP, 600 μL; 25% 3/NMP, 600 μL). The water content was determined by Karl Fischer titration using about 100 μL aliquots (t=0 measurement). Each septum was pierced with a 1.5 inch 18 gauge needle and left to stand at room temperature for 7 days. The water content was measured at the end of this period (t=7 d measurement) by Karl Fischer titration. All measurements were made in duplicate. Results and Discussion.

[3] = reported value; cited from earlier work
liver cell line (HepG2) = format: cell-based
From the text: (§2) The cellular toxicity of sulfoxide 3 was further determined for a breast cancer cell line (MDA-MB-231) and a liver cell line (HepG2).

[4] = test system: breast cancer cell line (MDA-MB-231); format: cell-based
From the text: as §2

Brine shrimp = Brine shrimp toxicity assay; format: in vivo
Experimental: General procedure for brine shrimp toxicity assays. Sample preparation. Stock solutions of 3 were prepared by dissolving 3 (50.0 mg) in 5.0 HPLC grade water (5.0 mL), (solution A) and 3 (2.50 g) in HPLC grade water (10.0 mL) (solution B). Stock solutions of DMSO were prepared by diluting DMSO (45 μL) with HPLC grade water (5.0 mL) (solution C) and DMSO (2.27 mL) with HPLC grade water (10.0 mL) (solution D).
In each case, 5 replicates were performed. Each replicate was performed in a 2 dram vial marked at the 4 and 5 mL volume points. To each vial was added artificial sea water (3 mL) followed by the appropriate volume of stock solution. For set 1 (1.0 mg/mL), solution A (0.500 mL) or solution C (0.500 mL) was added. For set 2 (5.0 mg/mL), solution B (0.100 mL) or solution D (0.100 mL) was added to each vial. For set 3 (20.0 mg/mL), solution B (0.400 mL) or solution D (0.400 mL) was added to each vial. For set 4 (50.0 mg/mL), solution B (1.00 mL) or solution D (1.00 mL) was added to each vial. Controls containing HPLC grade water (0.100 mL, 0.400 mL, and 1.00 mL) were prepared in the same manner, and five replicates of each control were prepared.
Brine shrimp eggs (San Francisco Bay Brand) were hatched in a commercial salt mixture (Instant Ocean). Constant aeration was provided using a pump and airstone, and illumination was maintained using a desk lamp. The shrimp were collected in a separate tank after 48 hours and used within 3-4 hours of collection.
Brine shrimp were added to each vial using a plastic transfer pipet. After the shrimp were transferred, artificial sea-water was added until the volume reached the 5-mL mark. One drop of a yeast suspension prepared by suspending 11 mg yeast in sea-water (20 mL) was added to each vial. The shrimp were counted at t=24 hours. Another drop of freshly prepared yeast solution (6 mg in 10 mL sea water) was added, the vials were maintained under illumination, and shrimp were counted at t=48 hours.

With `COc1cc(/C=C/C(=O)CC(=O)/C=C/c2ccc(O)c(OC)c2)ccc1O` [Compound 7, curcumin] the “effect of addition of sulfoxide 3 on aqueous solubility” value (from here on “effect”) [1] was “increased the aqueous solubility”.

For `COC(=O)Nc1nc2ccccc2[nH]1` [Compound 10, carbendazim], the “effect” value [1] was “increased the aqueous solubility”.

With `COC1=CC(=O)C[C@@H](C)[C@]12Oc1c(Cl)c(OC)cc(OC)c1C2=O` [Compound 11, griseofulvin] the “effect” value [1] was “increased the aqueous solubility”.

With `C[S+](C)[O-]` [DMSO, dimethyl sulfoxide, reference compound] the “Water content at t = 0” value ([2]; first vessel) was 160 ppm, the “Water content at t = 7 d” value ([2]; first vessel) was 1080 ppm and the “Water content at t = 0” value ([2]; second vessel) was 170 ppm. For the same compound, the “Water content at t = 7 d” value ([2]; second vessel) was 1130 ppm, the “reported log P” value [3] was −1.3 and the GI50 (liver cell line (HepG2)) was ~800 mM. The GI50 [4] was ~800 mM, the “% Mortality after 24 h” value (Brine shrimp; 1 mg/mL) was 0% and the “% Mortality after 48 h” value (Brine shrimp; 1 mg/mL) was 0-10%. For the same compound, the “% Mortality after 24 h” value (Brine shrimp; 5 mg/mL) was 0%, the “% Mortality after 48 h” value (Brine shrimp; 5 mg/mL) was 0-6% and the “% Mortality after 24 h” value (Brine shrimp; 20 mg/mL) was 0%. The “% Mortality after 48 h” value (Brine shrimp; 20 mg/mL) was 0%, the “% Mortality after 24 h” value (Brine shrimp; 50 mg/mL) was 0% and the “% Mortality after 48 h” value (Brine shrimp; 50 mg/mL) was 15%. The “mortality after 24 h” value (Brine shrimp; same concentrations (1-50 mg/mL)) was “no mortality”.

In the case of `CN1CCCC1=O` [NMP, N-methyl-2-pyrrolidone], the “Water content at t = 0” value ([2]; first vessel) is reported as 150 ppm, the “Water content at t = 7 d” value ([2]; first vessel) is reported as 12,090 ppm and the “Water content at t = 0” value ([2]; second vessel) is reported as 130 ppm. The “Water content at t = 7 d” value ([2]; second vessel) was 17,000 ppm.

Source: US10251860B2, “Compounds for bone healing” (University of Pittsburgh—Of the Commonwealth System of …, priority 2015, dated 2019)
